Test results: paper doi:10.1101/2024.08.19.608619, “Discovery of potent SARS-CoV-2 nsp3 macrodomain inhibitors uncovers lack of translation to cellular antiviral response” (bioRxiv, 2024)
“And” between values parts separate entries of the source, which are not always exact repeats. Identical values can stand only once. Like-named read-outs stand apart in the source and are kept apart here.

Columns and labels:
[1] = Hepatic microsomal stability, MLM; type: in vitro ADME
KOR receptor = target: T1, KOR receptor (Homo sapiens, UniProt P41145); test: Eurofins CEREP panel, KOR; type: binding
T1 construct: purchased Eurofins Cerep (SafetyScreen44), recognised from the panel format

5-HT2A (h) = target: T2, 5-HT2A (h) (Homo sapiens, UniProt P28223); test: In vitro CEREP profiling, 5-HT2A (h) (agonist radioligand); type: binding; settings: test compound concentration 10 uM
T2 construct: purchased Eurofins Cerep (SafetyScreen44), recognised from the panel format
Source text: (§1) Supplement media-1.zip/Safety_Panel_Profile.csv, table | column: perc_inhibition

Vero E6/TMPRSS2 = Vero E6/TMPRSS2 cytotoxicity with P-gp inhibitor; type: cell-based; settings: for perc_max_measured: highest measured response of the dose series; for perc_min_measured: lowest measured response of the dose series
Source text: Supplement media-1.zip/Cytotoxicity.csv, table | column: cc10; cc50; perc_min_measured; perc_max_measured

MAO-A = target: T3, MAO-A (Rattus norvegicus, UniProt P21396); test: In vitro CEREP profiling, MAO-A (antagonist radioligand); type: binding; settings: test compound concentration 10 uM
T3 construct: purchased Eurofins Cerep (SafetyScreen44), recognised from the panel format
T3 sequence (P21396 1-526): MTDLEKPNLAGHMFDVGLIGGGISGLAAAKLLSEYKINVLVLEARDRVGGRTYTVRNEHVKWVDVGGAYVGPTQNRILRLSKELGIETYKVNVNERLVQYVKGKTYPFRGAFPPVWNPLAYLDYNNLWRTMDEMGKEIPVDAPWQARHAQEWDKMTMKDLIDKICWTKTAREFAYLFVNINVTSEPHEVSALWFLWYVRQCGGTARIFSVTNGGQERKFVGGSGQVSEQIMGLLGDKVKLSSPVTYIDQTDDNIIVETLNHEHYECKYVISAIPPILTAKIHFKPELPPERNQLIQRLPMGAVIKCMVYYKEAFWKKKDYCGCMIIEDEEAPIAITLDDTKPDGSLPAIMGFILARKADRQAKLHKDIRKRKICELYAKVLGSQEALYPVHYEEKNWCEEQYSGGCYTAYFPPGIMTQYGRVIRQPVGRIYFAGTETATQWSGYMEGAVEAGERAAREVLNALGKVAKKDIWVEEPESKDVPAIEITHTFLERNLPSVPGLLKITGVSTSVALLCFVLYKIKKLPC
Source text: as §1

BZD (central) = test: In vitro CEREP profiling, BZD (central) (agonist radioligand); type: binding; settings: test compound 10 uM
Source text: as §1

AR(h) = test: In vitro CEREP profiling, AR(h) (agonist radioligand); type: binding, human; settings: test compound concentration 10 uM
Source text: as §1

Lck kinase (h) = target: T4, Lck kinase (h) (Homo sapiens, UniProt P06239); test: In vitro CEREP profiling, Lck kinase (h); type: biochemical; settings: test compound concentration 10 uM, Enzyme and Cell-based assays
T4 construct: purchased Eurofins Cerep (SafetyScreen44), recognised from the panel format
Source text: as §1

CB2 (h) = target: T5, CB2 (h) (Homo sapiens, UniProt P34972); test: In vitro CEREP profiling, CB2 (h) (agonist radioligand); type: binding; settings: test compound 10 uM
T5 construct: purchased Eurofins Cerep (SafetyScreen44), recognised from the panel format
Source text: as §1

acetylcholinesterase (h) = target: T6, acetylcholinesterase (h) (Homo sapiens, UniProt P22303); test: In vitro CEREP profiling, acetylcholinesterase (h); type: biochemical; settings: test compound concentration 10 uM, Enzyme and Cell-based assays
T6 construct: purchased Eurofins Cerep (SafetyScreen44), recognised from the panel format
Source text: as §1

delta (DOP) (h) = target: T7, delta (DOP) (h) (Homo sapiens, UniProt P41143); test: In vitro CEREP profiling, delta (DOP) (h) (agonist radioligand); type: binding; settings: test compound concentration 10 uM
T7 construct: purchased Eurofins Cerep (SafetyScreen44), recognised from the panel format
Source text: as §1

CCK1 (CCKA) (h) = target: T8, CCK1 (CCKA) (h) (Homo sapiens, UniProt P32238); test: In vitro CEREP profiling, CCK1 (CCKA) (h) (agonist radioligand); type: binding; settings: test compound 10 uM
T8 construct: purchased Eurofins Cerep (SafetyScreen44), recognised from the panel format
T8 sequence (P32238 1-428): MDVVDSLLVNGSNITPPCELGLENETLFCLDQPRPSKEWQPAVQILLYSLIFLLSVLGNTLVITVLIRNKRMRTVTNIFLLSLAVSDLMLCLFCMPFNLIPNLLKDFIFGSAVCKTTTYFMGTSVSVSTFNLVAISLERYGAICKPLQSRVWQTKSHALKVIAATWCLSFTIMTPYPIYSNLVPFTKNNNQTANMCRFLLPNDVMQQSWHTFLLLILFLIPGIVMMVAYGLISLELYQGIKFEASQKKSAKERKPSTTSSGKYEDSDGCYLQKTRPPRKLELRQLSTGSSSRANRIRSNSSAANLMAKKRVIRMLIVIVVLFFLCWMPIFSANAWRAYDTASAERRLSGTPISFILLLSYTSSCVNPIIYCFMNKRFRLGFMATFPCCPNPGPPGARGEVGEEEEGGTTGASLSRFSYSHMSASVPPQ
Source text: as §1

Na+ channel (site 2) = test: In vitro CEREP profiling, Na+ channel (site 2) (antagonist radioligand); type: binding; settings: test compound concentration 10 uM
Source text: as §1

ETA (h) = target: T9, ETA (h) (Homo sapiens, UniProt P25101); test: In vitro CEREP profiling, ETA (h) (agonist radioligand); type: binding; settings: test compound 10 uM
T9 construct: purchased Eurofins Cerep (SafetyScreen44), recognised from the panel format
T9 sequence (P25101 21-427): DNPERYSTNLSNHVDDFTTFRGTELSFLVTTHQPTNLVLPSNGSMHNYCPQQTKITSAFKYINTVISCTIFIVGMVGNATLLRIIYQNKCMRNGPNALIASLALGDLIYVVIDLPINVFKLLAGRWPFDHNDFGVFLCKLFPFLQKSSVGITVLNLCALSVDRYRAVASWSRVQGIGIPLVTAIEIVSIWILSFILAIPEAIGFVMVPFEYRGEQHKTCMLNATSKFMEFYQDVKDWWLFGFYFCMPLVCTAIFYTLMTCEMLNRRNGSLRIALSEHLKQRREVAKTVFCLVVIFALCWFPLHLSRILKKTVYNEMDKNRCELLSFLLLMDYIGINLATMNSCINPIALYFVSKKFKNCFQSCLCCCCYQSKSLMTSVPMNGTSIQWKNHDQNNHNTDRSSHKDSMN
Source text: as §1

dopamine transporter (h) = target: T10, dopamine transporter (h) (Homo sapiens, UniProt Q01959); test: In vitro CEREP profiling, dopamine transporter (h) (antagonist radioligand); type: binding; settings: test compound concentration 10 uM
T10 construct: purchased Eurofins Cerep (SafetyScreen44), recognised from the panel format
Source text: as §1

MERS-CoV = test: microbe, parasite or virus in culture; type: cell-based; settings: for perc_max_measured: maximum measured response of dose series; for perc_min_measured: minimum measured response of dose series
[2] = In vitro mouse liver microsomal stability
[3] = Vero E6/TMPRSS2 MERS-CoV antiviral effect with P-gp inhibitor
[4] = read-out: perc_inhibition, % inhibition of the binding of a ligand specific for each target
[5] = read-out: perc_inhibition (% inhibition of the binding of a ligand specific for each target)
[6] = Middle East respiratory syndrome-related coronavirus, VeroE6/TMPRSS2

T1 sequence (P41145 whole entry): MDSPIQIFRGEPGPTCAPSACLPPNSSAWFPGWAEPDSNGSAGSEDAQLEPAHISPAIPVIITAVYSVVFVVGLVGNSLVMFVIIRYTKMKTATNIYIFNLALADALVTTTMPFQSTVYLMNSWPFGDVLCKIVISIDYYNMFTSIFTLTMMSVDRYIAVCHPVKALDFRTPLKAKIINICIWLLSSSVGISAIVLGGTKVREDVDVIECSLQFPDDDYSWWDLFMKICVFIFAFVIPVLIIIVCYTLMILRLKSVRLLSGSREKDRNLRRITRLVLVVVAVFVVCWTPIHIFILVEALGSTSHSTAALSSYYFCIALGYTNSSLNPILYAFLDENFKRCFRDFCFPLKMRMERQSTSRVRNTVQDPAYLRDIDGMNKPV
T4 sequence (P06239 whole entry): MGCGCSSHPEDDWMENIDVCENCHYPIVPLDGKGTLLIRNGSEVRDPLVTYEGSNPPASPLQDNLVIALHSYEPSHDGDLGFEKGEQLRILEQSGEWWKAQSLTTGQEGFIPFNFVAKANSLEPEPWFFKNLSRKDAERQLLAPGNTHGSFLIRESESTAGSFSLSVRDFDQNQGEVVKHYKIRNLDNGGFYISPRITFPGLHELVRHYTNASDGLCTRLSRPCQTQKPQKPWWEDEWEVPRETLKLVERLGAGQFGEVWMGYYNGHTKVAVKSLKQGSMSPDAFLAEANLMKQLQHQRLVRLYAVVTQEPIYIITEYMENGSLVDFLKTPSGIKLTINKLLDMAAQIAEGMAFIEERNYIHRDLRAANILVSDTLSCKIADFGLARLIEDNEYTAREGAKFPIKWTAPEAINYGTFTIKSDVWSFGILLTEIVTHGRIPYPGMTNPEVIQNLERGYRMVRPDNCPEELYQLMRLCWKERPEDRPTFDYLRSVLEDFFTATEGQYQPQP
T6 sequence (P22303 32-614): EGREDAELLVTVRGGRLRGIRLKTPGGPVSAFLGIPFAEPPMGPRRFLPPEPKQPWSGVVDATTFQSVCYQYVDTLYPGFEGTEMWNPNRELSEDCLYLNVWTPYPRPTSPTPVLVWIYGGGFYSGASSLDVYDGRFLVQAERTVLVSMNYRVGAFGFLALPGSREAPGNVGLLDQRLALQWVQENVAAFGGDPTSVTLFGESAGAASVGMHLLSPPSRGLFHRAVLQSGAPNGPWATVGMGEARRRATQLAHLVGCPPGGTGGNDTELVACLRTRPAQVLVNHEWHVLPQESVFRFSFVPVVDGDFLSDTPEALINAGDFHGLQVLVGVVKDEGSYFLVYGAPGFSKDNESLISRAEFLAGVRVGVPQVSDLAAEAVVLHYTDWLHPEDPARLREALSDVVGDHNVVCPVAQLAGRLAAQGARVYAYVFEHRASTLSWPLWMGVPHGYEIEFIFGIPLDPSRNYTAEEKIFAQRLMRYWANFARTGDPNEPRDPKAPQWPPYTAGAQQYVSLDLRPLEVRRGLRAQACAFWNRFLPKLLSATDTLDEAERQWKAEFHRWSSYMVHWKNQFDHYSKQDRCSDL
T2 sequence (P28223 whole entry): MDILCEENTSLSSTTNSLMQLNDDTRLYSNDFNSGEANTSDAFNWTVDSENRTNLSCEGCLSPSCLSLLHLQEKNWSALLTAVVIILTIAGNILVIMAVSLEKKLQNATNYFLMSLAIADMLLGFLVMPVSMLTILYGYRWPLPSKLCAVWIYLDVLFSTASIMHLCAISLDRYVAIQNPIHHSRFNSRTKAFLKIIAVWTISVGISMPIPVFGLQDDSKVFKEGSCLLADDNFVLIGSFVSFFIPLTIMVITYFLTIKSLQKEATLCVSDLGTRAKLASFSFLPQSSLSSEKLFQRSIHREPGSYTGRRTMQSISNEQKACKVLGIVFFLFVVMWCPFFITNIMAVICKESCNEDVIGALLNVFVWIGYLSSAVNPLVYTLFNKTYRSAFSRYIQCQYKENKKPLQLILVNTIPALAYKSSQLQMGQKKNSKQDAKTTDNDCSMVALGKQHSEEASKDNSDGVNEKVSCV
T10 sequence (Q01959 whole entry): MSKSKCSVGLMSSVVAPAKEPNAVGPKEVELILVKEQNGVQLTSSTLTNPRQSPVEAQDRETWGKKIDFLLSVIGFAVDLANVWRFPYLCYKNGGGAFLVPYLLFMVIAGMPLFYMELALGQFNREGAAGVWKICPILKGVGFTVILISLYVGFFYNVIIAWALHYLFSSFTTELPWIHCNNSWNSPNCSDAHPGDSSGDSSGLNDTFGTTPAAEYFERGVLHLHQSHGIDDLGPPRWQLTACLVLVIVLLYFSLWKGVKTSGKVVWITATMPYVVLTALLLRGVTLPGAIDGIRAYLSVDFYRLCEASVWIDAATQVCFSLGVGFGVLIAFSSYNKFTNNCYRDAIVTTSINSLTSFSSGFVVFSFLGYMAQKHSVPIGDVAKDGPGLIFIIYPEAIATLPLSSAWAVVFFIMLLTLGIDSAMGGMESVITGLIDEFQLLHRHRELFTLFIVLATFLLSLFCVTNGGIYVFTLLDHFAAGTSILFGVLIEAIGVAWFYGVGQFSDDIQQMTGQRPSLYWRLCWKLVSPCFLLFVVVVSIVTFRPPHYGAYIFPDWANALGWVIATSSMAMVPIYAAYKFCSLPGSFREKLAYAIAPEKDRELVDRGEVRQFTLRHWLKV
T5 sequence (P34972 whole entry): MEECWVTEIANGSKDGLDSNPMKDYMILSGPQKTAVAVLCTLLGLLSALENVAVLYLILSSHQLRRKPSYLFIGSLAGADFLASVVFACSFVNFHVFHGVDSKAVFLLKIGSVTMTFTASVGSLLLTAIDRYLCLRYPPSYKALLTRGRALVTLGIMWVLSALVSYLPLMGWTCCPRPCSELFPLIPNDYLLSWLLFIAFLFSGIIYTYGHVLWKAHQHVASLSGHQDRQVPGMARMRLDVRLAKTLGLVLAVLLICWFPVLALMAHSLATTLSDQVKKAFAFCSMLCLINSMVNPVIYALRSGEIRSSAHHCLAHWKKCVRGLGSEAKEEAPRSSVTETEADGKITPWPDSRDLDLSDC
T7 sequence (P41143 whole entry): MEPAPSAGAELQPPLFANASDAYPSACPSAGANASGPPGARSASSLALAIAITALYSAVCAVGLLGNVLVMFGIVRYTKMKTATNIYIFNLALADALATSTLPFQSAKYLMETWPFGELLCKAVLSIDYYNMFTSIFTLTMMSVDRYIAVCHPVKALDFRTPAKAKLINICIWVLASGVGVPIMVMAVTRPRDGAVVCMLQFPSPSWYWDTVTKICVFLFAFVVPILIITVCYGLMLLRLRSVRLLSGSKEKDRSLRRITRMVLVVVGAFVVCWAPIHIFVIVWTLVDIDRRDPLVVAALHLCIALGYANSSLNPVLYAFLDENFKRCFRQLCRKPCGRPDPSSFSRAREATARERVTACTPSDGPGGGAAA

For `CC(C)[C@@H](Nc1ncnc2[nH]c(-c3cnn(C)c3C#N)cc12)c1ccc2c(n1)OCCO2` [ASAP-0010716], the clint [1, 2] was 371.0 µL/min/mg, the perc_remaining [1, 2] was 1.0% and the t_half [1, 2] was 4.5 min. For the same compound, the perc_remaining_no_cofactor ([1]; In vitro mouse liver microsomal stability; no cofactor) was 99.0%, the “perc_inhibition (% inhibition of the binding of a ligand specific for each target)” value (KOR receptor; kappa (h) (KOP) (agonist radioligand), test compound concentration 10 uM) was 56% and the “perc_inhibition (% inhibition of the binding of a ligand specific for each target)” value (5-HT2A (h)) was 14%. The CC50 (Vero E6/TMPRSS2) was over 5 µM, the cc10 (Vero E6/TMPRSS2) was over 5.0 µM and the perc_max_measured (Vero E6/TMPRSS2) was 116.627%. For the same compound, the perc_min_measured (Vero E6/TMPRSS2) was 99.207%, the “perc_inhibition (% inhibition of the binding of a ligand specific for each target)” value (MAO-A) was 8% and the “perc_inhibition (% inhibition of the binding of a ligand specific for each target)” value (BZD (central)) was 8%. For the same compound, the “perc_inhibition (% inhibition of the binding of a ligand specific for each target)” value (AR(h)) was 12%, the “perc_inhibition: % inhibition of control enzyme activity, Lck kinase (h)” value (Lck kinase (h)) was 34% and the “perc_inhibition (% inhibition of the binding of a ligand specific for each target)” value (CB2 (h)) was 16%. For the same compound, the “perc_inhibition: % inhibition of control enzyme activity, acetylcholinesterase (h)” value (acetylcholinesterase (h)) was 22%, the “perc_inhibition (% inhibition of the binding of a ligand specific for each target)” value (delta (DOP) (h)) was 71% and the “perc_inhibition (% inhibition of the binding of a ligand specific for each target)” value (CCK1 (CCKA) (h)) was 20%. The “perc_inhibition (% inhibition of the binding of a ligand specific for each target)” value (Na+ channel (site 2)) was 12%, the “perc_inhibition (% inhibition of the binding of a ligand specific for each target)” value (ETA (h)) was 5% and the “perc_inhibition (% inhibition of the binding of a ligand specific for each target)” value (dopamine transporter (h)) was 30%. The perc_max_measured (MERS-CoV; [3]) was 144.33% and 125.176%, the perc_min_measured (MERS-CoV; [3]) was 55.976% and 101.272% and the EC50 (MERS-CoV; Vero E6/TMPRSS2 MERS-CoV antiviral effect with P-gp inhibitor, read-out: ec50) was over 5 µM. The EC90 (MERS-CoV; Vero E6/TMPRSS2 MERS-CoV antiviral effect with P-gp inhibitor, read-out: ec90) was over 5 µM.

Compound `CC(C)C(Nc1ncnc2[nH]c(C(=O)NC3CCN(C)C3)cc12)c1ccc2c(c1)S(=O)(=O)CCC2` (centres unmarked) [ASAP-0011198] has a perc_remaining [1, 2] of 80.0%, a t_half [1, 2] of 151.0 min and a perc_remaining_no_cofactor ([1]; In vitro mouse liver microsomal stability, no cofactor) of 92.0%. The microsomal CLint ([1]; liver microsomes; In vitro mouse liver microsomal stability) was 11 µL/min/mg, the “off-target activity at KOR receptor, in words” value (KOR receptor; CEREP panel) was “moderate” and the inhibition at 10 µM (KOR receptor; kappa (h) (KOP) (agonist radioligand), test compound concentration 10 uM, read-out: perc_inhibition (% inhibition of the binding of a ligand specific for each target)) was 78%. The inhibition at 10 µM (5-HT2A (h); [4]) was 1%, the cc10 (Vero E6/TMPRSS2) was over 5.0 µM and the perc_max_measured (Vero E6/TMPRSS2) was 120.684%. For the same compound, the perc_min_measured (Vero E6/TMPRSS2) was 90.027%, the inhibition at 10 µM (MAO-A; [5]) was 3% and the “perc_inhibition (% inhibition of the binding of a ligand specific for each target)” value (BZD (central)) was 38%. The “perc_inhibition (% inhibition of the binding of a ligand specific for each target)” value (AR(h)) was -5%, the inhibition at 10 µM (Lck kinase (h); read-out: perc_inhibition: % inhibition of control enzyme activity, Lck kinase (h)) was 15% and the inhibition at 10 µM (CB2 (h); [5]) was -8%. For the same compound, the inhibition at 10 µM (acetylcholinesterase (h); read-out: perc_inhibition: % inhibition of control enzyme activity, acetylcholinesterase (h)) was 28%, the inhibition at 10 µM (delta (DOP) (h); [5]) was -16% and the inhibition at 10 µM (CCK1 (CCKA) (h); [5]) was 7%. For the same compound, the “perc_inhibition (% inhibition of the binding of a ligand specific for each target)” value (Na+ channel (site 2)) was 16%, the inhibition at 10 µM (ETA (h); [5]) was -6% and the inhibition at 10 µM (dopamine transporter (h); [4]) was 22%. The EC50 (MERS-CoV; [6]) was over 5 µM, the EC90 (MERS-CoV; [6]) was over 5 µM and the perc_max_measured (MERS-CoV; [3]) was 124.089% and 106.936%. For the same compound, the perc_min_measured (MERS-CoV; [3]) was 88.282% and 84.091%.
